# Assay results from PMC5806266, “Molecular, biochemical and kinetic analysis of a novel, thermostable lipase (LipSm) from Stenotrophomonas maltophilia Psi-1, the first member of a new bacterial lipase family (XVIII)” (Journal of Biological Research, 2018).
# Tested on: T1, LipSm
# T1 construct: mature form (371 residues, signal peptide cleaved in E. coli BL21(DE3) after LAA), C-terminal 8 extra residues incl; ORF 400 residues
# Assay: initial velocities, 4-nitrophenol release at […] nm
# Format: biochemical, Stenotrophomonas maltophilia
# Conditions: 100 mM Tris-HCl pH 8.0, 1% w/v Triton X-100, 5% v/v DMSO, 40 °C
compound,measurement,setting,value
"CC(=O)Oc1ccc([N+](=O)[O-])cc1 [Ac-4-NPh, 4-nitrophenyl acetate]",Km,850 nM enzyme,473 µM
"CCCC(=O)Oc1ccc([N+](=O)[O-])cc1 [Bu-4-NPh, 4-nitrophenyl butyrate]",Km,"850 nM enzyme, limited substrate solubility",1930 µM
"CCCCCCCCCCCC(=O)Oc1ccc([N+](=O)[O-])cc1 [La-4-NPh, 4-nitrophenyl laurate]",Km,"2200 nM enzyme, limited substrate solubility",349 µM
